From patent US6509365B1, “2-phenylbenzimidazoles and 2-phenylindoles, and production and use thereof” (BASF Aktiengesellschaft, priority 1998, dated 2003)

How the values were obtained:
[1] = target: T1, PARP enzyme present in the cells (human cell line C4I) (Homo sapiens, UniProt P09874); experiment: Test of PARP inhibitors in a cellular assay (H2O2-induced PAR formation, immunofluorescence); format: cell-based; conditions: 1 mM hydrogen peroxide, FITC signal standardized to DAPI
T1 construct: endogenous in cells; host or cells: human cell line C4I
T1 sequence (P09874 whole entry): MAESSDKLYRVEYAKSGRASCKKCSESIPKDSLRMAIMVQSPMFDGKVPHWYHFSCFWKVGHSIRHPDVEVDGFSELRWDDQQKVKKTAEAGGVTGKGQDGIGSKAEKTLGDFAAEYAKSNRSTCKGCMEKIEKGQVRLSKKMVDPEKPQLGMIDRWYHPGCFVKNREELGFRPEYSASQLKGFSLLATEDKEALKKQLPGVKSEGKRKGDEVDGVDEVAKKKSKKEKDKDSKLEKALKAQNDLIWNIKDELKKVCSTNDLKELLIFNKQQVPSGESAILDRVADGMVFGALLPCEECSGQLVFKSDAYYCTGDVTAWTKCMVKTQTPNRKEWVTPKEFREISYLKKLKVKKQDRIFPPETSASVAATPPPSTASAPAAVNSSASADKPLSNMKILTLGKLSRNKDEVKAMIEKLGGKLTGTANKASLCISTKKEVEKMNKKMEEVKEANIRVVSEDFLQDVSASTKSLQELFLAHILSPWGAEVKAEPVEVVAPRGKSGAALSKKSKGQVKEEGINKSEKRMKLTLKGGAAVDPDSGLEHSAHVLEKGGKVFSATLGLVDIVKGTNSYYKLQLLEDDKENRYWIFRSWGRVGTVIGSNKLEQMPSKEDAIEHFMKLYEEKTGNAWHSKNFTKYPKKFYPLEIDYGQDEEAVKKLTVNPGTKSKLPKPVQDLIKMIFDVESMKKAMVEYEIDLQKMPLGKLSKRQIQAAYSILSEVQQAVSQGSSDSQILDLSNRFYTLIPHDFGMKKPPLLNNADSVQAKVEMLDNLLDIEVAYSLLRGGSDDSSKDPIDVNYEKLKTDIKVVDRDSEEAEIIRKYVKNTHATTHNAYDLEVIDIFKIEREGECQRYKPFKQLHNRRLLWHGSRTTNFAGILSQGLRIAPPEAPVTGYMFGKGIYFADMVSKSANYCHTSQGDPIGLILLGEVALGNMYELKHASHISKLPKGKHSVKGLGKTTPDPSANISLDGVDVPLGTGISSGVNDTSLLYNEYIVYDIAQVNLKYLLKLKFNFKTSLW
Description: To test the action of PARP inhibitors, eukaryotic cell lines are treated with chemicals such that the DNA of the cell line is damaged and as a result the PARP enzyme present in the cells is activated. Due to the activation of the enzyme, chains of poly-ADP-ribose (PAR) are formed on proteins. These chains are bound by a specific antibody. This is in turn bound by a second antibody which is provided with a fluorescent label. The fluorescence is measured using a fluorescence scanner and behaves proportionately to the activity of the enzyme PARP. PARP inhibitors can be recognized by a weakening of the fluorescence signal. In order to prevent adulterations of the results by different cell counts, the DNA of the cells is labeled with a further dye and its fluorescence is likewise determined in the fluorescence scanner.
400,000 cells of the human cell line C4I are incubated at 37° C., 5% CO2 with 10% fetal bovine serum in RPMI medium in cell culture plates having 24 cavities until a thick cell lawn is obtained. The cells are washed with DMEM and the PARP inhibitors to be tested are added in various concentrations in DMEM. After incubation for 20 min at 37° C., a concentration of 1 mM is established using hydrogen peroxide and the mixture is incubated at 37° C. for a further 10 min. For the control, cells in some cavities are not treated with hydrogen peroxide (no PARP activation) or receive no inhibitor (maximal PARP activation). The cells are washed once with PBS and fixed at −20° C. for 10 min by addition of methanol/acetone mixture which is precooled to −20° C. (7 parts methanol, 3 parts acetone). The cells are then dried, rehydrated at room temperature for 10 min by addition of PBS, and nonspecific binding sites are blocked for 30 min at room temperature in PBS with 0.05% Tween 20 and 5% dried milk powder. […] The FITC and DAPI fluorescence is measured at several sites in the cavities with the aid of a fluorescence scanner. […] The IC50 values are calculated by semilogarithmic plotting of the standardized values of the various inhibitor concentrations.

[2] = Determination of the water solubility; format: physicochemical; conditions: pH 5 to 6 adjusted with sodium acetate solution, DMSO ≦1% if not a water-soluble salt
Description: A compound to be measured is dissolved directly in a specified volume of water and the resulting solution is adjusted to pH 5 to 6 using a sodium acetate solution so that the concentration of the active compound to be tested is achieved. If the measured substance is not present as a water-soluble salt, this was dissolved in as little dimethyl sulfoxide as possible and then diluted with water (final concentration of dimethyl sulfoxide ≦1%), after which the pH was additionally adjusted here too.

[3] = system: circulatory shock; conditions: S. Cuzzocrea et al., Br. J. Pharmacol. 1997; cited from earlier work

Compound | IC50 [1] | also measured
CCN(CC)CCN(C)c1ccc(-c2nc3c(C(N)=O)cccc3[nH]2)cc1 [Example 1] | 115 nM | –
CN(C)CCc1cc(-c2nc3c(C(N)=O)cccc3[nH]2)ccc1[N+](=O)[O-] [Example 3] | 118 nM | –
COc1ccc(-c2nc3cccc(C(N)=O)c3[nH]2)cc1 [NU 1076] | – | solubility [2]: < 0.01%
NC(=O)c1cccc(N)c1 [3-aminobenzamide] | – | protective effects in a model for circulatory shock [3]: protective effects
CN(C)CCN(C)c1ccc(-c2nc3c(C(N)=O)cccc3[nH]2)cc1 [Example 2] | 119 nM | –
